In ChEMBL document CHEMBL1128114, “Enzymatic resolution and pharmacological activity of the enantiomers of 3,5-dihydroxyphenylglycine, a metabotropic glutamate receptor agonist” (Bioorg Med Chem Lett, 1995):

Molecular target: Metabotropic glutamate receptor
Test: Compound was tested for ability to stimulate metabotropic glutamate receptor (mGluR) mediated phosphoinositide hydrolysis in rat hippocampus
Type: functional, tissue-based

Row | EC50 [µM] | SMILES
1 | 10.9 | N[C@H](C(=O)O)c1cc(O)cc(O)c1
2 | 106 | N[C@@H](C(=O)O)c1cc(O)cc(O)c1
